Source: patent US12344610B2, “APOL1 inhibitors and methods of use” (Maze Therapeutics, Inc., priority 2022, dated 2025)

Tests used:
APOL1 G2 = target: T1, APOL1 G2 (Homo sapiens, UniProt O14791, DEL388-389); assay: APOL1-mediated calcium transport (calcium influx) assay, HEK T-REx/GCaMP6f/APOL1 G2 K6.3 cells, FLIPR TETRA; format: cell-based; conditions: prevention of calcium influx; geometric mean of at least 2 assay runs; † = average of a technical replicate from a single assay run
T1 construct: expressed in transfected cells; host or cells: HEK293 T-REx clonal line stably expressing GCaMP6f (HEK T-REx/GCaMP6f/APOL1 G2 K6.3), doxycycline induced
T1 sequence (O14791 with tags, fused parts or gaps DEL388-389): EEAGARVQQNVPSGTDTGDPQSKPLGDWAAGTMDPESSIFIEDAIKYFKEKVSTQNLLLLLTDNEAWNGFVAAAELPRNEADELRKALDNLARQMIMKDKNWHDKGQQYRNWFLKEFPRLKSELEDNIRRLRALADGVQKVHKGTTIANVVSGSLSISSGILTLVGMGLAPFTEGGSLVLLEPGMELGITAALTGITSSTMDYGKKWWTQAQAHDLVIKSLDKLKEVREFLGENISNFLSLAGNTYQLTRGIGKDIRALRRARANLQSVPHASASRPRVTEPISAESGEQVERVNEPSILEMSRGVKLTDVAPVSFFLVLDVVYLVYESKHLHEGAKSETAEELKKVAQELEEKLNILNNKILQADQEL
Method in brief: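 A HEK293 T-REx clone stably expressing GCaMP6f had APOL1 G2 induced with doxycycline (20 ng/mL solution added) for 6 h. Cells were then washed into Ca2+-free Tyrode's buffer (pH 7.4) and preincubated with compounds (duplicate 8-point) for 10 min at room temperature. Ca2+ injection to 5 mM final produced FLIPR GCaMP fluorescence, giving AC50 for influx inhibition (geometric mean, ≥2 runs).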

[1] = tested on: HEK293 cells overexpressing APOL1 G2; assay: APOL1 G2 HEK293 cell rescue assay (reversal of cell death caused by overexpression of APOL1); format: cell-based; conditions: Homo sapiens, HEK293, HEK293 overexpressing APOL1 G2; geometric mean of at least 2 assay runs; † = single assay run
Method in brief: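 EC50 is the half-maximal effective concentration for reversing cell death driven by APOL1 G2 overexpression in HEK293 cells. Reported as geometric mean of at least 2 runs on separate days, each run averaging duplicate wells per plate; some values from a single run.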

SMILES | AC50 (APOL1 G2) | EC50 [1]
O=C1Nc2ccc(Cl)cc2C12CCN(CCOc1ccc(S(=O)(=O)[C@H]3C[C@@H](O)C3)cc1)CC2 [Compound 17, 5-chloro-1′-[2-(4-{[(cis)-3-hydroxycyclobutyl]sulfonyl}phenoxy)ethyl]-1,2-dihydrospiro[indole-3,4′-piperidin]-2-one] | 1100 nM | 60 nM
O=C1CCc2cc(OCCN3CCC4(CC3)C(=O)Nc3ccc(Cl)cc34)ccc2N1C1COC1 [Compound 99, 5-chloro-1′-(2-{[1-(oxetan-3-yl)-2-oxo-1,2,3,4-tetrahydroquinolin-6-yl]oxy}ethyl)-1,2-dihydrospiro[indole-3,4′-piperidin]-2-one] | 643 nM | 86.5 nM
CS(=O)(=O)c1ccc(OCCN2CCC3(CC2)C(=O)Nc2ccc(C#N)cc23)cc1C(F)F [Compound 100, 1′-{2-[3-(difluoromethyl)-4-methanesulfonylphenoxy]ethyl}-2-oxo-1,2-dihydrospiro[indole-3,4′-piperidine]-5-carbonitrile] | 503 nM | 46.5 nM
CS(=O)(=O)C1(c2ccc(OCCN3CCC4(CC3)C(=O)Nc3ccc(C#N)cc34)cc2)CC1 [Compound 101, 1′-{2-[4-(1-methanesulfonylcyclopropyl)phenoxy]ethyl}-2-oxo-1,2-dihydrospiro[indole-3,4′-piperidine]-5-carbonitrile] | 634 nM | 49.6 nM
CS(=O)(=O)C1(c2ccc(OCCN3CCC4(CC3)C(=O)Nc3ccc(Cl)cc34)cc2)CC1 [Compound 102, 5-chloro-1′-{2-[4-(1-methanesulfonylcyclopropyl)phenoxy]ethyl}-1,2-dihydrospiro[indole-3,4′-piperidin]-2-one] | 671 nM | 31.4 nM
CN1c2ccc(OCCN3CCC4(CC3)C(=O)Nc3ccc(Cl)cc34)cc2CCS1(=O)=O [Compound 103, 6-(2-{5-chloro-2-oxo-1,2-dihydrospiro[indole-3,4′-piperidin]-1′-yl}ethoxy)-1-methyl-3,4-dihydro-1H-2λ^6,1-benzothiazine-2,2-dione] | 591 nM | 49.4 nM
CN1c2ccc(OCCN3CCC4(CC3)C(=O)Nc3ccc(C#N)cc34)cc2CCS1(=O)=O [Compound 104, 1′-{2-[(1-methyl-2,2-dioxo-3,4-dihydro-1H-2λ^6,1-benzothiazin-6-yl)oxy]ethyl}-2-oxo-1,2-dihydrospiro[indole-3,4′-piperidine]-5-carbonitrile] | 408 nM | 139 nM
N#Cc1ccc2c(c1)C1(CCN(CCOc3ccc4c(c3)CCC(=O)N4CC(F)F)CC1)C(=O)N2 [Compound 105, 1′-(2-{[1-(2,2-difluoroethyl)-2-oxo-1,2,3,4-tetrahydroquinolin-6-yl]oxy}ethyl)-2-oxo-1,2-dihydrospiro[indole-3,4′-piperidine]-5-carbonitrile] | 392 nM | 40.7 nM
O=C1CCc2cc(OCCN3CCC4(CC3)C(=O)Nc3ccc(Cl)cc34)ccc2N1CC(F)F [Compound 106, 5-chloro-1′-(2-{[1-(2,2-difluoroethyl)-2-oxo-1,2,3,4-tetrahydroquinolin-6-yl]oxy}ethyl)-1,2-dihydrospiro[indole-3,4′-piperidin]-2-one] | 756 nM | 33.5 nM
CS(=O)(=O)c1ccc(OCCN2CCC3(CC2)C(=O)Nc2ccc(C#N)cc23)cc1C(F)(F)F [Compound 107, 1′-{2-[4-methanesulfonyl-3-(trifluoromethyl)phenoxy]ethyl}-2-oxo-1,2-dihydrospiro[indole-3,4′-piperidine]-5-carbonitrile] | 712 nM | 30.8 nM
CS(=O)(=O)c1ccc(OCCN2CCC3(CC2)C(=O)Nc2ccc(Cl)cc23)cc1C(F)(F)F [Compound 108, 5-chloro-1′-{2-[4-methanesulfonyl-3-(trifluoromethyl)phenoxy]ethyl}-1,2-dihydrospiro[indole-3,4′-piperidin]-2-one] | 860 nM | 16.9 nM
CS(=O)(=O)C1(c2ccc(OCCN3CCC4(CC3)C(=O)Nc3ccc(C#N)cc34)cc2)COC1 [Compound 109, 1′-{2-[4-(3-methanesulfonyloxetan-3-yl)phenoxy]ethyl}-2-oxo-1,2-dihydrospiro[indole-3,4′-piperidine]-5-carbonitrile] | 1190 nM | 96.9 nM
Cc1cc(OCCN2CCC3(CC2)C(=O)Nc2ccc(Cl)cc23)ccc1S(C)(=O)=O [Compound 110, 5-chloro-1′-[2-(4-methanesulfonyl-3-methylphenoxy)ethyl]-1,2-dihydrospiro[indole-3,4′-piperidin]-2-one] | 772 nM | 41.3 nM
Cc1cc(OCCN2CCC3(CC2)C(=O)Nc2ccc(C#N)cc23)ccc1S(C)(=O)=O [Compound 111, 1′-[2-(4-methanesulfonyl-3-methylphenoxy)ethyl]-2-oxo-1,2-dihydrospiro[indole-3,4′-piperidine]-5-carbonitrile] | 919 nM | 142 nM
O=C1Nc2ccc(Cl)cc2C12CCN(CCOc1ccc(S(=O)(=O)C(F)F)cc1)CC2 [Compound 112, 5-chloro-1′-[2-(4-difluoromethanesulfonylphenoxy)ethyl]-1,2-dihydrospiro[indole-3,4′-piperidin]-2-one] | 746 nM | 47.2 nM
N#Cc1ccc2c(c1)C1(CCN(CCOc3ccc(S(=O)(=O)C(F)F)cc3)CC1)C(=O)N2 [Compound 113, 1′-[2-(4-difluoromethanesulfonylphenoxy)ethyl]-2-oxo-1,2-dihydrospiro[indole-3,4′-piperidine]-5-carbonitrile] | 524 nM | 83.6 nM
O=C1CCc2cc(OCCN3CCC4(CC3)C(=O)Nc3ccc(Cl)cc34)ccc2N1[C@H]1C[C@@H](O)C1 [Compound 114, 5-chloro-1′-[2-({2-oxo-1-[(cis)-3-hydroxycyclobutyl]-1,2,3,4-tetrahydroquinolin-6-yl}oxy)ethyl]-1,2-dihydrospiro[indole-3,4′-piperidin]-2-one] | 529 nM | 46.5 nM
CN(c1c(F)cc(OCCN2CCC3(CC2)C(=O)Nc2ccc(Cl)cc23)cc1F)S(C)(=O)=O [Compound 127, N-[4-(2-{5-chloro-2-oxo-1,2-dihydrospiro[indole-3,4′-piperidin]-1′-yl}ethoxy)-2,6-difluorophenyl]-N-methylmethanesulfonamide] | 542 nM | 20.8 nM
CN(c1c(F)cc(OCCN2CCC3(CC2)C(=O)Nc2ccc(C#N)cc23)cc1F)S(C)(=O)=O [Compound 128, N-[4-(2-{5-cyano-2-oxo-1,2-dihydrospiro[indole-3,4′-piperidin]-1′-yl}ethoxy)-2,6-difluorophenyl]-N-methylmethanesulfonamide] | 537 nM | 42.7 nM
Cc1cc(OCCN2CCC3(CC2)C(=O)Nc2ccc(Cl)cc23)cc(C)c1S(C)(=O)=O [Compound 129, 5-chloro-1′-[2-(4-methanesulfonyl-3,5-dimethylphenoxy)ethyl]-1,2-dihydrospiro[indole-3,4′-piperidin]-2-one] | 352 nM | 24.6 nM
Cn1c(=O)oc2cc(OCCN3CCC4(CC3)C(=O)Nc3ccc(Cl)cc34)ccc21 [Compound 131, 5-chloro-1′-{2-[(3-methyl-2-oxo-2,3-dihydro-1,3-benzoxazol-6-yl)oxy]ethyl}-1,2-dihydrospiro[indole-3,4′-piperidin]-2-one] | 464 nM | 68 nM
Cn1c(=O)oc2cc(OCCN3CCC4(CC3)C(=O)Nc3ccc(C#N)cc34)ccc21 [Compound 132, 1′-{2-[(3-methyl-2-oxo-2,3-dihydro-1,3-benzoxazol-6-yl)oxy]ethyl}-2-oxo-1,2-dihydrospiro[indole-3,4′-piperidine]-5-carbonitrile] | 492 nM | 153 nM
CS(=O)(=O)C1(c2c(F)cc(OCCN3CCC4(CC3)C(=O)Nc3ccc(Cl)cc34)cc2F)COC1 [Compound 136, 5-chloro-1′-{2-[3,5-difluoro-4-(3-methanesulfonyloxetan-3-yl)phenoxy]ethyl}-1,2-dihydrospiro[indole-3,4′-piperidin]-2-one] | 800 nM | 22.4 nM
CC(c1c(F)cc(OCCN2CCC3(CC2)C(=O)Nc2ccc(C#N)cc23)cc1F)S(C)(=O)=O (centres unmarked) [Compound 137, 1′-{2-[3,5-difluoro-4-(1-methanesulfonylethyl)phenoxy]ethyl}-2-oxo-1,2-dihydrospiro[indole-3,4′-piperidine]-5-carbonitrile] | 597 nM | 114 nM
Cc1cc(OCCN2CCC3(CC2)C(=O)Nc2ccc(C#N)cc23)cnc1S(C)(=O)=O [Compound 140, 1′-{2-[(6-methanesulfonyl-5-methylpyridin-3-yl)oxy]ethyl}-2-oxo-1,2-dihydrospiro[indole-3,4′-piperidine]-5-carbonitrile] | 807 nM | 172 nM
